Measurements reported in patent publication US11091476B2, “Protein kinase inhibitors, preparation method and medical use thereof” (Gan & Lee Pharmaceuticals, priority 2015, dated 2021).
Entries after “also recorded” stand apart in the source; their conditions may differ. Like-named read-outs stand apart in the source and are kept apart here.

Columns and labels:
[1] = target: CDK2/CyclinE1 (Homo sapiens (Human), UniProt P24941); experiment: Kinase inhibitory activity on CDK2/CyclinE1; type: biochemical
Protocol: (§1) 1.2 Experimental Preparation • 1.2.1 Preparation of Kinase Reaction Buffer I: The 5×Reaction Buffer A (Promega; V307A-C) provided in the kit was mixed and diluted with MILLI-Q® H2O and 0.1 M DTT (dithiothreitol) to give 4× kinase buffer, and then MILLI-Q® H2O was further added to finally formulate the solution into 1× Kinase buffer.
1 μl of 10 mM standard substance stock solution was taken and added to 9 μl of kinase reaction buffer I and mixed well; then 90 μl of kinase reaction buffer I was added and mixed well; then 100 μl of kinase reaction buffer I was added and mixed well. The final concentration was 50 μM. • b. 40 μl of kinase reaction buffer II was added into B2 to B10 of a 96-well plate, and 50 μl of the above solution was added into B1; • c. 10 μl of solution was taken from well B1, added into B2, and mixed well; then 10 μl of the resulting solution was taken and added into B3, and dilution was carried out in sequence to B9, so as to obtain control solutions that are diluted by 5-fold sequentially. • (2) Preparation of test compound solution: • a. […]
(§2) The inhibition rate of each compound at each concentration point was calculated by the formula as follows and curve fitting was performed by GraphPad Prism 5 software to obtain the IC50 value.

[2] = target: Pim-1 (Homo sapiens (Human), UniProt P11309); experiment: Kinase inhibitory activity on Pim-1; type: biochemical
Protocol: as §1
1 μl of 10 mM standard substance stock solution was taken and added to 9 μl of kinase reaction buffer I and mixed well; then 90 μl of kinase reaction buffer I was added and mixed well; then 100 μl of kinase reaction buffer I was added and mixed well. The final concentration was 50 μM. • b. 40 μl of kinase reaction buffer II was added into B2 to B10 of a 96-well plate, and 50 μl of the above solution was added into B1; • c. 10 μl of solution was taken from well B1, added into B2, and mixed well; then 10 μl of the resulting solution was taken and added into B3, and dilution was carried out in sequence to B9, so as to obtain control solutions that are diluted by 5-fold sequentially. • (2) Preparation of test compound solution: • a. Test compound solutions at a certain concentration were taken, respectively, diluted with kinase reaction buffer I to a final concentration of 50 μM compound solution; • b. 40 μl of kinase reaction buffer II was added into H2 to H10 of the 96-well plate; and 50 μl of the above solution was added into H1; • c. 10 μl of solution was taken from well H1, added into H2, and mixed well; then 10 μl of the resulting solution was taken and added into H3, and dilution was carried out in sequence to H9, so as to obtain test compound solutions that are diluted by 5-fold sequentially. • 1.2.4 Preparation of a mixed solution of reaction substrate and ATP: • a. Preparation of ATP solution: • 200 μl of 0.1 mM ATP solution: 2 μl of 10 mM ATP was added to 198 μl of kinase reaction buffer I; • 300 μl of 50 μM ATP solution: 150 μl of kinase reaction buffer I was added to 150 μl of the above 0.1 mM ATP solution; • b. Preparation of 300 μl of reaction substrate solution: • 150 μl 1 μg/μl reaction substrate stock solution was added to 150 μl kinase reaction buffer I, and mixed well; • c. The above a/b solutions were mixed to obtain mixed solutions, respectively.
1.3 Experimental process: • 1.3.1: 2 μl of compound solutions of various concentrations were taken, added to a 384-well plate, and centrifuged 3 minutes; • 1.3.2: 4 μl of kinase solution was added to each well, centrifuged at 5000 rpm and 18° C. for 10 minutes, and shaken on a plate shaker for 10 minutes; • 1.3.3: 4 μl of mixed solution of substrate and ATP was added to each well, centrifuged at 5000 rpm and 18° C. for 10 minutes, and shaken on a plate shaker at 37° C. for 90 minutes; • 1.3.4: The 384-well plate was taken out, and allowed to stand to room temperature; • 1.3.5: 10 μl of ADP-GLO™ reagent was added to each well, centrifuged at 5000 rpm and 18° C. for 18 minutes, and shaken on a plate shaker at 25° C. for 40 minutes, and then the reaction was stopped; • 1.3.6: 20 μl of kinase detection reagent was added to each well, centrifuged at 5000 rpm and 18° C. for 10 minutes, and shaken on a plate shaker at 25° C. for 30 minutes; and • 1.3.7: M1000pro MICROPLATE READER was used to read […] values.
as §2

[3] = test system: Human glioma cell line U87 MG; experiment: Inhibition of proliferation of the U87 MG cell line (DAPI, In Cell Analyzer); type: cell-based; details: for IC50: Homo sapiens, U-87 MG, 72 hours incubation, read-out: IC50, proliferation of U87MG Cell Line
Protocol: as §2

[4] = Plasma and brain exposure levels after single intragastric administration; type: in vivo, CD-1 mice; details: for Cmax: read-out: Blood concentration Cmax, Plasma
Protocol: The CD-1 mice were used as the test animals, the concentrations of the drugs in the plasma and brain tissue of mice at different time points after single intragastric administration of the representative compound of this disclosure were determined by LC/MS/MS, so as to study the plasma level and brain exposure level of the compounds of the disclosure in mice.
For each test drug, 12 male CD-1 mice were administered intragastrically at a dose of 10 mg/kg and an administration volume of 10 ml/kg after fasting overnight.
The whole brain was collected, mashed and frozen in liquid nitrogen. Ten hours after administration, the remaining animals were sacrificed, whole blood was collected by cardiac puncture, and the whole brain was collected, mashed and frozen in liquid nitrogen.
The whole brain was collected, mashed and frozen in liquid nitrogen. 48 hours after administration, the remaining animals were sacrificed, whole blood was collected by cardiac puncture, and the whole brain was collected, mashed and frozen in liquid nitrogen.
Treatment of the whole blood sample: The collected whole blood was anticoagulated with EDTA-K2, and centrifuged, the supernatant was removed, and the residue was frozen and stored at −20° C. until the sample was analyzed by LC-MS/MS.
Brain homogenate sampling: Brain homogenate were dispersed with PBS (pH=7.4): MeOH (v:v, 2:1) solution in a volume 5 times of the volume of the brain homogenate. 100 μl of solution was taken, and the protein therein was precipitated with 600 μl IS. The mixture was centrifuged at 13,000 rpm and 20-25° C. for 15 minutes. 50 μL of the supernatant was mixed with 150 μL of water containing 0.3% FA and centrifuged at 4° C. 5 μL of the sample was analyzed by LC-MS/MS.
The linear range of sample analysis was 1-2000 ng/ml, and the lowest quantification limit was 1 ng/ml.

[5] = male, mouse, po, CD-1 mice, intragastric 10 mg/kg, brain, read-out: Area under curve AUC0-last, Brain
[6] = male, mouse, po, CD-1 mice, intragastric 10 mg/kg, brain, read-out: The time for blood concentration reaching peak Tmax, Brain
[7] = male, mouse, po, CD-1 mice, intragastric 10 mg/kg, plasma, read-out: Area under curve AUC0-last, Plasma
[8] = male, mouse, po, CD-1 mice, intragastric 10 mg/kg, plasma
[9] = male, mouse, po, CD-1 mice, intragastric 10 mg/kg, plasma, read-out: The time for blood concentration reaching peak Tmax, Plasma

Chain of Pim-1 (P11309 whole entry): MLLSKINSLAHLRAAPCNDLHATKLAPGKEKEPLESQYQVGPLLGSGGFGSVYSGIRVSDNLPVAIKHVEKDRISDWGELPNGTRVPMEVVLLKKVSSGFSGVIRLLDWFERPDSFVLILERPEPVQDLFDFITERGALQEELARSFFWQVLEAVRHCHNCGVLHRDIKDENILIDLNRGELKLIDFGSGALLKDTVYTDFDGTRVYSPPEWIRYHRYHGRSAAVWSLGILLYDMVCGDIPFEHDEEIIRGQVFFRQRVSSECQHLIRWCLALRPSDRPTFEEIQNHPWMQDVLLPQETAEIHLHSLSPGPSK

| SMILES | IC50 [1] [nM] | IC50 [2] [nM] | IC50 [3] [nM] | Inhibitory activity on proliferation of the U87MG cell line, in words ([3]; experimental conclusion) | Blood concentration Cmax, Brain ([4]; CD-1 mice, intragastric 10 mg/kg, brain) [ng/mL] | Kp ([4]; male, mouse, brain/plasma, po, CD-1 mice, intragastric 10 mg/kg, ratio, read-out: Cmax Brain/Plasma) | AUC(0-t) [4, 5] [ng·h/mL] | Tmax [4, 6] [h] | AUC(0-t) [4, 7] [ng·h/mL] | Cmax [4, 8] [ng/mL] | Tmax [4, 9] [h] | Blood brain distribution, in words ([4]; mice, relative to LY2835219) |
| --- | --- | --- | --- | --- | --- | --- | --- | --- | --- | --- | --- | --- |
| CCN1CCC(c2ccc(Nc3ncc(F)c(-c4cc(F)c5c(c4)C4(CCCC4)C(C)=N5)n3)nc2)CC1 [Example 12, N-(5-(1-ethylpiperidin-4-yl)pyridin-2-yl)-5-fluoro-4-(7′-fluoro-2′-methylspiro [cyclopentane-1,3′-indol]-5′-yl)pyrimidine-2-amino] | 394 | 15.1 | – | – | – | – | – | – | – | – | – | – |
| CC1=Nc2c(F)cc(-c3nc(Nc4ccc(C5CCN(C)CC5)cn4)ncc3F)cc2C12CCCC2 [Example 17, 5-Fluoro-4-(7′-fluoro-2′-methylspiro[cyclopentane-1,3′-indol]-5′-yl)-N-(5-(1-methylpiperidin-4-yl)pyridin-2-yl)pyrimidine-2-amino] | 2320 | 38.3 | 35.4 | significant inhibitory activity | 1270 | 1.98 | 16800 | 4 | 7660 | 639 | 4 | better blood brain distribution; also recorded: good blood-brain distribution |
| CCN1CCN(Cc2ccc(Nc3ncc(F)c(-c4cc(F)c5nc(C)n(C(C)C)c5c4)n3)nc2)CC1 [LY2835219, reference compound] | – | – | 151 | – | – | – | 1110 | 6 | 4250 | 836 | 1.5 | – |
